Patent publication US10251395B2, “Substituted furano-/thienocycloalkylamino-2-pyrimidine derivatives and use thereof for controlling undesired plant growth” (Bayer CropScience Aktiengesellschaft, priority 2015, dated 2019)

Tests used:
Abutilon theophrasti [1] = test: Pre-emergence herbicidal effect; type: in vivo; settings: scored visually after 3 weeks
How it was run: (§1)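 Pre-emergence soil-surface application of compound as WP or EC in water (600 to 800 L/ha, 0.2% wetting agent) to freshly sown, soil-covered seeds in sandy loam. After 3 weeks under greenhouse conditions, percent activity rated by eye versus untreated plants, from 0% (no effect) to 100% (death).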

Alopecurus myosuroides [2] = test: Pre-emergence herbicidal effect; type: in vivo; settings: scored visually after 3 weeks
How it was run: as §1

Amaranthus retroflexus [3] = test: Pre-emergence herbicidal effect; type: in vivo; settings: scored visually after 3 weeks
How it was run: as §1

Avena fatua [4] = test: Pre-emergence herbicidal effect; type: in vivo; settings: scored visually after 3 weeks
How it was run: as §1

Cyperus esculentus = test: Pre-emergence herbicidal effect; type: in vivo; settings: scored visually after 3 weeks
How it was run: as §1

Echinochloa crus-galli [5] = test: Pre-emergence herbicidal effect; type: in vivo; settings: scored visually after 3 weeks
How it was run: as §1

Lolium multiflorum [6] = test: Pre-emergence herbicidal effect; type: in vivo; settings: scored visually after 3 weeks
How it was run: as §1

Matricaria inodora [7] = test: Pre-emergence herbicidal effect; type: in vivo; settings: scored visually after 3 weeks
How it was run: as §1

Polygonum convolvulus [8] = test: Pre-emergence herbicidal effect; type: in vivo; settings: scored visually after 3 weeks
How it was run: as §1

Setaria viridis [9] = test: Pre-emergence herbicidal effect; type: in vivo; settings: scored visually after 3 weeks
How it was run: as §1

Stellaria media [10] = test: Pre-emergence herbicidal effect; type: in vivo; settings: scored visually after 3 weeks
How it was run: as §1

Veronica persica [11] = test: Pre-emergence herbicidal effect; type: in vivo; settings: scored visually after 3 weeks
How it was run: as §1

Viola tricolor [12] = test: Pre-emergence herbicidal effect; type: in vivo; settings: scored visually after 3 weeks
How it was run: as §1

Abutilon theophrasti [13] = test: Post-emergence herbicidal effect; type: in vivo; settings: assessed visually after about 3 weeks vs untreated controls
How it was run: (§2)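 Herbicidal effect was rated visually roughly 3 weeks after foliar treatment, as % versus untreated plants, with 0% meaning the same as controls and 100% meaning dead. Plants were treated at the one-leaf stage in the greenhouse with aqueous WP or EC sprays at 600–800 L/ha containing 0.2% wetter.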

Alopecurus myosuroides [14] = test: Post-emergence herbicidal effect; type: in vivo; settings: assessed visually after about 3 weeks vs untreated controls
How it was run: as §2

Amaranthus retroflexus [15] = test: Post-emergence herbicidal effect; type: in vivo; settings: assessed visually after about 3 weeks vs untreated controls
How it was run: as §2

Avena fatua [16] = test: Post-emergence herbicidal effect; type: in vivo; settings: assessed visually after about 3 weeks vs untreated controls
How it was run: as §2

Echinochloa crus-galli [17] = test: Post-emergence herbicidal effect; type: in vivo; settings: assessed visually after about 3 weeks vs untreated controls
How it was run: as §2

Ipomoea purpurea = test: Post-emergence herbicidal effect; type: in vivo; settings: assessed visually after about 3 weeks vs untreated controls
How it was run: as §2

Lolium multiflorum [18] = test: Post-emergence herbicidal effect; type: in vivo; settings: assessed visually after about 3 weeks vs untreated controls
How it was run: as §2

Matricaria inodora [19] = test: Post-emergence herbicidal effect; type: in vivo; settings: assessed visually after about 3 weeks vs untreated controls
How it was run: as §2

Polygonum convolvulus [20] = test: Post-emergence herbicidal effect; type: in vivo; settings: assessed visually after about 3 weeks vs untreated controls
How it was run: as §2

Setaria viridis [21] = test: Post-emergence herbicidal effect; type: in vivo; settings: assessed visually after about 3 weeks vs untreated controls
How it was run: as §2

Stellaria media [22] = test: Post-emergence herbicidal effect; type: in vivo; settings: assessed visually after about 3 weeks vs untreated controls
How it was run: as §2

Veronica persica [23] = test: Post-emergence herbicidal effect; type: in vivo; settings: assessed visually after about 3 weeks vs untreated controls
How it was run: as §2

Viola tricolor [24] = test: Post-emergence herbicidal effect; type: in vivo; settings: assessed visually after about 3 weeks vs untreated controls
How it was run: as §2

logP (HCOOH) = type: physicochemical; settings: HCOOH (formic acid)
From the text: Table 2 (physicochemical characterization of selected synthesis examples)

Cc1cc2c(s1)CCCC2Nc1ncc(C#N)c(N)n1 (centres unmarked) [compound 282]
ABUTH pre-emergence efficacy (herbicidal activity) (Abutilon theophrasti [1]; Dosage 80 g/ha): 80% | ABUTH pre-emergence efficacy (herbicidal activity) (Abutilon theophrasti [1]; Dosage 320 g/ha): 80% | ALOMY pre-emergence efficacy (herbicidal activity) (Alopecurus myosuroides [2]; Dosage 80 g/ha): 100% | ALOMY pre-emergence efficacy (herbicidal activity) (Alopecurus myosuroides [2]; Dosage 320 g/ha): 100% | AMARE pre-emergence efficacy (herbicidal activity) (Amaranthus retroflexus [3]; Dosage 80 g/ha): 100% | AMARE pre-emergence efficacy (herbicidal activity) (Amaranthus retroflexus [3]; Dosage 320 g/ha): 100% | AVEFA pre-emergence efficacy (herbicidal activity) (Avena fatua [4]; Dosage 80 g/ha): 80% | AVEFA pre-emergence efficacy (herbicidal activity) (Avena fatua [4]; Dosage 320 g/ha): 90% | CYPES pre-emergence efficacy (herbicidal activity) (Cyperus esculentus; Dosage 80 g/ha): 80% | CYPES pre-emergence efficacy (herbicidal activity) (Cyperus esculentus; Dosage 320 g/ha): 100% | ECHCG pre-emergence efficacy (herbicidal activity) (Echinochloa crus-galli [5]; Dosage 80 g/ha): 100% | ECHCG pre-emergence efficacy (herbicidal activity) (Echinochloa crus-galli [5]; Dosage 320 g/ha): 100% | LOLMU pre-emergence efficacy (herbicidal activity) (Lolium multiflorum [6]; Dosage 80 g/ha): 100% | LOLMU pre-emergence efficacy (herbicidal activity) (Lolium multiflorum [6]; Dosage 320 g/ha): 100% | MATIN pre-emergence efficacy (herbicidal activity) (Matricaria inodora [7]; Dosage 80 g/ha): 100% | MATIN pre-emergence efficacy (herbicidal activity) (Matricaria inodora [7]; Dosage 320 g/ha): 100% | POLCO pre-emergence efficacy (herbicidal activity) (Polygonum convolvulus [8]; Dosage 80 g/ha): 100% | POLCO pre-emergence efficacy (herbicidal activity) (Polygonum convolvulus [8]; Dosage 320 g/ha): 100% | SETVI pre-emergence efficacy (herbicidal activity) (Setaria viridis [9]; Dosage 80 g/ha): 100% | SETVI pre-emergence efficacy (herbicidal activity) (Setaria viridis [9]; Dosage 320 g/ha): 100% | STEME pre-emergence efficacy (herbicidal activity) (Stellaria media [10]; Dosage 80 g/ha): 100% | STEME pre-emergence efficacy (herbicidal activity) (Stellaria media [10]; Dosage 320 g/ha): 100% | VERPE pre-emergence efficacy (herbicidal activity) (Veronica persica [11]; Dosage 80 g/ha): 100% | VERPE pre-emergence efficacy (herbicidal activity) (Veronica persica [11]; Dosage 320 g/ha): 100% | VIOTR pre-emergence efficacy (herbicidal activity) (Viola tricolor [12]; Dosage 80 g/ha): 100% | VIOTR pre-emergence efficacy (herbicidal activity) (Viola tricolor [12]; Dosage 320 g/ha): 100% | post-emergence efficacy ABUTH (Abutilon theophrasti [13]; 80 g/ha): 90% | post-emergence efficacy ABUTH (Abutilon theophrasti [13]; 320 g/ha): 90% | post-emergence efficacy ALOMY (Alopecurus myosuroides [14]; 80 g/ha): 100% | post-emergence efficacy ALOMY (Alopecurus myosuroides [14]; 320 g/ha): 100% | post-emergence efficacy AMARE (Amaranthus retroflexus [15]; 80 g/ha): 100% | post-emergence efficacy AMARE (Amaranthus retroflexus [15]; 320 g/ha): 100% | post-emergence efficacy AVEFA (Avena fatua [16]; 80 g/ha): 100% | post-emergence efficacy AVEFA (Avena fatua [16]; 320 g/ha): 100% | post-emergence efficacy ECHCG (Echinochloa crus-galli [17]; 80 g/ha): 100% | post-emergence efficacy ECHCG (Echinochloa crus-galli [17]; 320 g/ha): 100% | post-emergence efficacy PHBPU (Ipomoea purpurea; 80 g/ha): 80% | post-emergence efficacy PHBPU (Ipomoea purpurea; 320 g/ha): 90% | post-emergence efficacy LOLMU (Lolium multiflorum [18]; 80 g/ha): 100% | post-emergence efficacy LOLMU (Lolium multiflorum [18]; 320 g/ha): 100% | post-emergence efficacy MATIN (Matricaria inodora [19]; 80 g/ha): 90% | post-emergence efficacy MATIN (Matricaria inodora [19]; 320 g/ha): 90% | post-emergence efficacy POLCO (Polygonum convolvulus [20]; 80 g/ha): 90% | post-emergence efficacy POLCO (Polygonum convolvulus [20]; 320 g/ha): 90% | post-emergence efficacy SETVI (Setaria viridis [21]; 80 g/ha): 100% | post-emergence efficacy SETVI (Setaria viridis [21]; 320 g/ha): 100% | post-emergence efficacy STEME (Stellaria media [22]; 80 g/ha): 100% | post-emergence efficacy STEME (Stellaria media [22]; 320 g/ha): 100% | post-emergence efficacy VERPE (Veronica persica [23]; 80 g/ha): 80% | post-emergence efficacy VERPE (Veronica persica [23]; 320 g/ha): 90% | post-emergence efficacy VIOTR (Viola tricolor [24]; 80 g/ha): 100% | post-emergence efficacy VIOTR (Viola tricolor [24]; 320 g/ha): 100%

Cc1sc2c(c1C)C(Nc1ncc(C(F)(F)F)c(N)n1)CCC2 (centres unmarked) [compound 213, N2-(2,3-Dimethyl-4,5,6,7-tetrahydrobenzothiophen-4-yl)-5-(trifluoromethyl)pyrimidine-2,4-diamine]
ABUTH pre-emergence efficacy (herbicidal activity) (Abutilon theophrasti [1]; Dosage 320 g/ha): 100% | ALOMY pre-emergence efficacy (herbicidal activity) (Alopecurus myosuroides [2]; Dosage 80 g/ha): 100% | ALOMY pre-emergence efficacy (herbicidal activity) (Alopecurus myosuroides [2]; Dosage 320 g/ha): 100% | AMARE pre-emergence efficacy (herbicidal activity) (Amaranthus retroflexus [3]; Dosage 80 g/ha): 100% | AMARE pre-emergence efficacy (herbicidal activity) (Amaranthus retroflexus [3]; Dosage 320 g/ha): 100% | AVEFA pre-emergence efficacy (herbicidal activity) (Avena fatua [4]; Dosage 320 g/ha): 100% | CYPES pre-emergence efficacy (herbicidal activity) (Cyperus esculentus; Dosage 80 g/ha): 80% | CYPES pre-emergence efficacy (herbicidal activity) (Cyperus esculentus; Dosage 320 g/ha): 80% | ECHCG pre-emergence efficacy (herbicidal activity) (Echinochloa crus-galli [5]; Dosage 80 g/ha): 90% | ECHCG pre-emergence efficacy (herbicidal activity) (Echinochloa crus-galli [5]; Dosage 320 g/ha): 100% | LOLMU pre-emergence efficacy (herbicidal activity) (Lolium multiflorum [6]; Dosage 80 g/ha): 80% | LOLMU pre-emergence efficacy (herbicidal activity) (Lolium multiflorum [6]; Dosage 320 g/ha): 100% | MATIN pre-emergence efficacy (herbicidal activity) (Matricaria inodora [7]; Dosage 80 g/ha): 100% | MATIN pre-emergence efficacy (herbicidal activity) (Matricaria inodora [7]; Dosage 320 g/ha): 100% | POLCO pre-emergence efficacy (herbicidal activity) (Polygonum convolvulus [8]; Dosage 80 g/ha): 90% | POLCO pre-emergence efficacy (herbicidal activity) (Polygonum convolvulus [8]; Dosage 320 g/ha): 100% | SETVI pre-emergence efficacy (herbicidal activity) (Setaria viridis [9]; Dosage 80 g/ha): 100% | SETVI pre-emergence efficacy (herbicidal activity) (Setaria viridis [9]; Dosage 320 g/ha): 100% | STEME pre-emergence efficacy (herbicidal activity) (Stellaria media [10]; Dosage 80 g/ha): 100% | STEME pre-emergence efficacy (herbicidal activity) (Stellaria media [10]; Dosage 320 g/ha): 100% | VERPE pre-emergence efficacy (herbicidal activity) (Veronica persica [11]; Dosage 80 g/ha): 100% | VERPE pre-emergence efficacy (herbicidal activity) (Veronica persica [11]; Dosage 320 g/ha): 100% | VIOTR pre-emergence efficacy (herbicidal activity) (Viola tricolor [12]; Dosage 80 g/ha): 100% | VIOTR pre-emergence efficacy (herbicidal activity) (Viola tricolor [12]; Dosage 320 g/ha): 100% | post-emergence efficacy ABUTH (Abutilon theophrasti [13]; 80 g/ha): 80% | post-emergence efficacy ABUTH (Abutilon theophrasti [13]; 320 g/ha): 90% | post-emergence efficacy ALOMY (Alopecurus myosuroides [14]; 320 g/ha): 90% | post-emergence efficacy AMARE (Amaranthus retroflexus [15]; 80 g/ha): 80% | post-emergence efficacy AMARE (Amaranthus retroflexus [15]; 320 g/ha): 90% | post-emergence efficacy AVEFA (Avena fatua [16]; 80 g/ha): 80% | post-emergence efficacy AVEFA (Avena fatua [16]; 320 g/ha): 80% | post-emergence efficacy ECHCG (Echinochloa crus-galli [17]; 320 g/ha): 90% | post-emergence efficacy PHBPU (Ipomoea purpurea; 320 g/ha): 90% | post-emergence efficacy LOLMU (Lolium multiflorum [18]; 80 g/ha): 80% | post-emergence efficacy LOLMU (Lolium multiflorum [18]; 320 g/ha): 80% | post-emergence efficacy MATIN (Matricaria inodora [19]; 320 g/ha): 90% | post-emergence efficacy POLCO (Polygonum convolvulus [20]; 320 g/ha): 90% | post-emergence efficacy SETVI (Setaria viridis [21]; 80 g/ha): 50% | post-emergence efficacy SETVI (Setaria viridis [21]; 320 g/ha): 90% | post-emergence efficacy STEME (Stellaria media [22]; 80 g/ha): 80% | post-emergence efficacy STEME (Stellaria media [22]; 320 g/ha): 90% | post-emergence efficacy VERPE (Veronica persica [23]; 80 g/ha): 80% | post-emergence efficacy VERPE (Veronica persica [23]; 320 g/ha): 90% | post-emergence efficacy VIOTR (Viola tricolor [24]; 80 g/ha): 90% | post-emergence efficacy VIOTR (Viola tricolor [24]; 320 g/ha): 100% | chromatographic logP (logP (HCOOH)): 2.66
